Results from patent US9266892B2, “Fused pyrazoles as FGFR inhibitors” (Incyte Corporation, priority 2012, dated 2016).

How the values were obtained:
Format in all cases: biochemical
FGFR1 = target: T1, FGFR1 (Homo sapiens, UniProt P11362); experiment: FGFR Enzymatic Assay (FRET peptide phosphorylation), FGFR1; settings: FGFR1 0.02 nM, ATP 210 μM
T1 construct: purchased Millipore or Invitrogen
Description: (§1) The inhibitor potency of the Example compounds was measured in an enzyme assay that measures peptide phosphorylation using FRET measurements to detect product formation. Inhibitors were serially diluted in DMSO and a volume of 0.5 μL was transferred to the wells of a 384-well plate. For FGFR3, a 10 μL volume of FGFR3 enzyme (Millipore) diluted in assay buffer (50 mM HEPES, 10 mM MgCl2, 1 mM EGTA, 0.01% Tween-20, 5 mM DTT, pH 7.5) was added to the plate and pre-incubated for 5-10 minutes. Appropriate controls (enzyme blank and enzyme with no inhibitor) were included on the plate. The assay was initiated by the addition of a 10 μL solution containing biotinylated EQEDEPEGDYFEWLE peptide substrate (SEQ ID NO: 1) and ATP (final concentrations of 500 nM and 140 μM respectively) in assay buffer to the wells. The plate was incubated at 25° C. for 1 hr. The reactions were ended with the addition of 10 μL/well of quench solution (50 mM Tris, 150 mM NaCl, 0.5 mg/mL BSA, pH˜7.8, 30 mM EDTA with Perkin Elmer Lance Detection Reagents at 3.75 nM Eu-antibody PY20 and 180 nM APC-Streptavidin). The plate was allowed to equilibrate for 1 hour before scanning the wells on a PheraStar plate reader (BMG Labtech). The enzymes were purchased from Millipore or Invitrogen.
(§2) FGFR1 and FGFR2 were measured under equivalent conditions with the following changes in enzyme and ATP concentrations: FGFR1, 0.02 nM and 210 μM, respectively and FGFR2, 0.01 nM and 100 μM, respectively.
(§3) GraphPad prism3 was used to analyze the data. The IC50 values were derived by fitting the data to the equation for a sigmoidal dose-response with a variable slope. Y=Bottom+(Top−Bottom)/(1+10^((Log IC50−X)*HillSlope)) where X is the logarithm of concentration and Y is the response.

FGFR2 = target: T2, FGFR2 (Homo sapiens, UniProt P21802); experiment: FGFR Enzymatic Assay (FRET peptide phosphorylation), FGFR2; settings: FGFR2 0.01 nM, ATP 100 μM
T2 construct: purchased Millipore or Invitrogen
Description: as §1, §2, §3

FGFR3 = target: T3, FGFR3 (Homo sapiens, UniProt P22607); experiment: FGFR Enzymatic Assay (FRET peptide phosphorylation), FGFR3; settings: ATP 140 μM, 25° C. for 1 hr
T3 construct: purchased Millipore
Description: as §1, §3

T1 sequence (P11362 22-822): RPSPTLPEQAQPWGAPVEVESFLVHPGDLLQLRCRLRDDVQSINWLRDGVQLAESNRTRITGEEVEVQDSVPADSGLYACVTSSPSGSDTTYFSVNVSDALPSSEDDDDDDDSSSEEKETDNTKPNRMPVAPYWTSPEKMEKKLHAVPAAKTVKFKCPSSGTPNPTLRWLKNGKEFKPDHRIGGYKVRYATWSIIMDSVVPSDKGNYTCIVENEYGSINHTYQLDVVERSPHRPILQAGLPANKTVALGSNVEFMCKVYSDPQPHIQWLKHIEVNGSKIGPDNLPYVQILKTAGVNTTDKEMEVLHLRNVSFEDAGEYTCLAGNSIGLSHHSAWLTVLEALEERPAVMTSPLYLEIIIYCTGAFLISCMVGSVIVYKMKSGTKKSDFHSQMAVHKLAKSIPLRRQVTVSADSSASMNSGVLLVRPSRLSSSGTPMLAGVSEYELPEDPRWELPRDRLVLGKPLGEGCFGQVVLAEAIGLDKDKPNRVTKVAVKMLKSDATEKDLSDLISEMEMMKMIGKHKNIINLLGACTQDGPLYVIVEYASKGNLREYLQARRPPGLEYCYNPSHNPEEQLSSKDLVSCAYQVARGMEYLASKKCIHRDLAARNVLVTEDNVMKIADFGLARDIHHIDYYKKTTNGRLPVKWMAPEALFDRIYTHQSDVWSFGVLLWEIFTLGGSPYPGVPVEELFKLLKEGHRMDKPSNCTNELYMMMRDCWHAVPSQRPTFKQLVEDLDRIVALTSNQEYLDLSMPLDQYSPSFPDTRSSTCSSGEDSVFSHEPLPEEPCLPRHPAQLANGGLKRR
T3 sequence (P22607 23-806): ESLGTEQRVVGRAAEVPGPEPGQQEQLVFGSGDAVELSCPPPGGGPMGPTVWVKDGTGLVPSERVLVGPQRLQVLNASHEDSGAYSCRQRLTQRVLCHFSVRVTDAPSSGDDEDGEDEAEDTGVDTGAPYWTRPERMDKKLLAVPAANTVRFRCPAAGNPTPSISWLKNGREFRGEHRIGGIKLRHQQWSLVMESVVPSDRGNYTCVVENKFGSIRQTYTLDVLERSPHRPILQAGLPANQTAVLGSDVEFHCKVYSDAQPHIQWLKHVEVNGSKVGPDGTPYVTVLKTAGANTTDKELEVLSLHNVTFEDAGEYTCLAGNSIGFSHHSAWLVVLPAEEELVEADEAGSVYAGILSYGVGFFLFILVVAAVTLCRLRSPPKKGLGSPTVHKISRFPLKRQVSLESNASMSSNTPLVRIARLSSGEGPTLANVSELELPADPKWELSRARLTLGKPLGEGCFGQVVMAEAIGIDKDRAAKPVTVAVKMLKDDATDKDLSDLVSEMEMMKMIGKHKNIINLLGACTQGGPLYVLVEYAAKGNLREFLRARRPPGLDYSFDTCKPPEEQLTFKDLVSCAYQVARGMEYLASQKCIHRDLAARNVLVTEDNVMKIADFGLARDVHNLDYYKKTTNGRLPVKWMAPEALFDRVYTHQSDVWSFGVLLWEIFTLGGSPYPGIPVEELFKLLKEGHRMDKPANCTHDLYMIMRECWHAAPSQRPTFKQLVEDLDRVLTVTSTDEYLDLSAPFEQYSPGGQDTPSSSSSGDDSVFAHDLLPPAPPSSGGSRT
T2 sequence (P21802 22-821): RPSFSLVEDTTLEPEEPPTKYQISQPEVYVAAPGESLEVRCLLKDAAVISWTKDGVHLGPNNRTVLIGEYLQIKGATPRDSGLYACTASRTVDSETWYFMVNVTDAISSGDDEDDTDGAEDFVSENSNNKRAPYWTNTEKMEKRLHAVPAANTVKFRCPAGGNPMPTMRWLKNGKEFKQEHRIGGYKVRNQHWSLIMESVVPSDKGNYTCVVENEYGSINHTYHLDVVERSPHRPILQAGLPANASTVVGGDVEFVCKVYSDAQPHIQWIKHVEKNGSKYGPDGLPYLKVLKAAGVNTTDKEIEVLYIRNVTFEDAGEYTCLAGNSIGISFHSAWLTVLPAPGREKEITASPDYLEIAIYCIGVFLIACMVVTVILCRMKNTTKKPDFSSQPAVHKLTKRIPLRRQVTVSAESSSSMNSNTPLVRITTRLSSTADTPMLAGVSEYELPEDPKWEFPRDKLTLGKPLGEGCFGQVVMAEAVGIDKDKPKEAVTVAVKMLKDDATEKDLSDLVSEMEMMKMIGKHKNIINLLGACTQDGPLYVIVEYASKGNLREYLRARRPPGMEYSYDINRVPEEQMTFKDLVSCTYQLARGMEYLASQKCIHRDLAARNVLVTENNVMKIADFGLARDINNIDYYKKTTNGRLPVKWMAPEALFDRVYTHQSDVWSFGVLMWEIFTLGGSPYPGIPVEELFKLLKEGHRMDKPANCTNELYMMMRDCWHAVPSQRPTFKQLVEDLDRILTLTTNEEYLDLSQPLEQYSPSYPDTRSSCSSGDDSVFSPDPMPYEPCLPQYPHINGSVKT

IC50 (FGFR1) [nM] | IC50 (FGFR2) [nM] | IC50 (FGFR3) [nM] | Structure (SMILES)
< 100 | < 100 | < 100 | COc1cc(OC)c(Cl)c(-c2cc3[nH]nc(-c4cnn(C)c4)c3cn2)c1Cl [Example 90, 6-(2,6-Dichloro-3,5-dimethoxyphenyl)-3-(1-methyl-1H-pyrazol-4-yl)-1H-pyrazolo[4,3-c]pyridine]
< 100 | < 100 | < 100 | COc1cc(OC)c(Cl)c(-c2ncc3c(-c4ccc(N5CCN(C)CC5)cc4)n[nH]c3n2)c1Cl [Example 75, 6-(2,6-Dichloro-3,5-dimethoxyphenyl)-3-[4-(4-methylpiperazin-1-yl)phenyl]-1H-pyrazolo[3,4-d]pyrimidine]
< 100 | < 100 | < 100 | COc1cc(OC)c(Cl)c(-c2cc3[nH]nc(-c4ccc5c(c4)CN(C4CC4)C5=O)c3cn2)c1Cl [Example 28, 2-Cyclopropyl-5-[6-(2,6-dichloro-3,5-dimethoxyphenyl)-1H-pyrazolo[4,3-c]pyridin-3-yl]isoindolin-1-one]
< 100 | < 100 | < 100 | COc1cc(OC)c(Cl)c(-c2cc3[nH]nc(-c4ccc(OCCN(C)C)cc4)c3cn2)c1Cl [Example 35, 2-{4-[6-(2,6-Dichloro-3,5-dimethoxyphenyl)-1H-pyrazolo[4,3-c]pyridin-3-yl]phenoxy}-N,N-dimethylethanamine]
< 100 | < 100 | < 100 | COc1cc(OC)c(F)c(-c2cc3[nH]nc(-c4ccc5c(c4)CCC(C(=O)N(C)C)O5)c3cn2)c1F (stereo not drawn) [Example 57, 6-[6-(2,6-Difluoro-3,5-dimethoxyphenyl)-1H-pyrazolo[4,3-c]pyridin-3-yl]-N,N-dimethylchromane-2-carboxamide]
< 100 | < 100 | < 100 | COc1cc(OC)c(Cl)c(-c2ncc3c(-c4ccc5c(c4)CN([C@H]4CC[C@@H](O)CC4)C5=O)n[nH]c3n2)c1Cl [Example 22, 5-[6-(2,6-Dichloro-3,5-dimethoxyphenyl)-1H-pyrazolo[3,4-d]pyrimidin-3-yl]-2-(cis-4-hydroxycyclohexyl)isoindolin-1-one]
< 100 | < 100 | < 100 | COc1ccc(C#Cc2n[nH]c3nc(-c4c(F)c(OC)cc(OC)c4F)ncc23)cc1 [Example 14, 6-(2,6-Difluoro-3,5-dimethoxyphenyl)-3-[(4-methoxyphenyl)ethynyl]-1H-pyrazolo[3,4-d]pyrimidine]
< 100 | < 100 | < 100 | CCN1Cc2cc(-c3n[nH]c4cc(-c5c(F)c(OC)cc(OC)c5F)ncc34)ccc2C1=O [Example 52, 5-[6-(2,6-Difluoro-3,5-dimethoxyphenyl)-1H-pyrazolo[4,3-c]pyridin-3-yl]-2-ethylisoindolin-1-one]
< 100 | < 100 | < 100 | COc1cc(OC)c(Cl)c(-c2ncc3c(-c4ccc5c(c4)CCN(C)C5=O)n[nH]c3n2)c1Cl [Example 9, 6-[6-(2,6-Dichloro-3,5-dimethoxyphenyl)-1H-pyrazolo[3,4-d]pyrimidin-3-yl]-2-methyl-3,4-dihydroisoquinolin-1(2H)-one]
< 100 | < 100 | < 100 | COc1cc(OC)c(Cl)c(-c2cc3[nH]nc(-c4cnn(CC(=O)N5CCC(O)C5)c4)c3cn2)c1Cl (stereo not drawn) [Example 43, 1-({4-[6-(2,6-Dichloro-3,5-dimethoxyphenyl)-1H-pyrazolo[4,3-c]pyridin-3-yl]-1H-pyrazol-1-yl}acetyl)pyrrolidin-3-ol]
< 100 | < 100 | < 100 | COc1cc(OC)c(F)c(-c2ncc3c(-c4ccc5c(c4)CN(CCN(C)C)C5=O)n[nH]c3n2)c1F [Example 80, 5-[6-(2,6-Difluoro-3,5-dimethoxyphenyl)-1H-pyrazolo[3,4-d]pyrimidin-3-yl]-2-[2-(dimethylamino)ethyl]isoindolin-1-one]
< 100 | < 100 | < 100 | COc1cc(OC)c(F)c(-c2cc3[nH]nc(-c4cnn(C)c4)c3cn2)c1F [Example 91, 6-(2,6-Difluoro-3,5-dimethoxyphenyl)-3-(1-methyl-1H-pyrazol-4-yl)-1H-pyrazolo[4,3-c]pyridine]
< 100 | < 100 | < 100 | CCN1Cc2cc(-c3n[nH]c4nc(-c5c(Cl)c(OC)cc(OC)c5Cl)ncc34)cnc2C1=O [Example 77, 3-[6-(2,6-Dichloro-3,5-dimethoxyphenyl)-1H-pyrazolo[3,4-d]pyrimidin-3-yl]-6-ethyl-5,6-dihydro-7H-pyrrolo[3,4-b]pyridin-7-one]
< 100 | < 100 | < 100 | COc1cc(OC)c(F)c(-c2ncc3c(-c4cnn(C(C)C#N)c4)n[nH]c3n2)c1F (stereo not drawn) [Example 76, 2-{4-[6-(2,6-Difluoro-3,5-dimethoxyphenyl)-1H-pyrazolo[3,4-d]pyrimidin-3-yl]-1H-pyrazol-1-yl}propanenitrile]
< 100 | < 100 | < 100 | COc1cc(OC)c(F)c(-c2ncc3c(-c4ccc5c(c4)CN(S(C)(=O)=O)CC5)n[nH]c3n2)c1F [Example 85, 7-[6-(2,6-Difluoro-3,5-dimethoxyphenyl)-1H-pyrazolo[3,4-d]pyrimidin-3-yl]-2-(methylsulfonyl)-1,2,3,4-tetrahydroisoquinoline]
< 100 | < 100 | < 100 | COc1cc(OC)c(Cl)c(-c2ncc3c(-c4ccc5c(c4)CCO5)n[nH]c3n2)c1Cl [Example 86, 6-(2,6-Dichloro-3,5-dimethoxyphenyl)-3-(2,3-dihydro-1-benzofuran-5-yl)-1H-pyrazolo[3,4-d]pyrimidine]
< 100 | < 100 | < 100 | COc1cc(OC)c(F)c(-c2cc3[nH]nc(-c4ccc5c(c4)CC(C(=O)N4CCN(C)CC4)O5)c3cn2)c1F (stereo not drawn) [Example 24, 6-(2,6-Difluoro-3,5-dimethoxyphenyl)-3-{2-[(4-methylpiperazin-1-yl)carbonyl]-2,3-dihydro-1-benzofuran-5-yl}-1H-pyrazolo[4,3-c]pyridine]
< 100 | < 100 | < 100 | COc1cc(OC)c(Cl)c(-c2ccc3c(-c4ccc5c(c4)CN(C4CC4)C5=O)n[nH]c3n2)c1F [Example 89, 5-[6-(2-Chloro-6-fluoro-3,5-dimethoxyphenyl)-1H-pyrazolo[3,4-b]pyridin-3-yl]-2-cyclopropylisoindolin-1-one]
< 100 | < 100 | < 100 | COc1cc(OC)c(Cl)c(-c2cc3[nH]nc(-c4ccc(OCC(=O)N(C)C)c(C)c4)c3cn2)c1Cl [Example 29, 2-{4-[6-(2,6-Dichloro-3,5-dimethoxyphenyl)-1H-pyrazolo[4,3-c]pyridin-3-yl]-2-methylphenoxy}-N,N-dimethylacetamide]
< 100 | < 100 | < 100 | COc1cc(OC)c(F)c(-c2ncc3c(-c4ccc5c(c4)CCN(S(C)(=O)=O)C5)n[nH]c3n2)c1F [Example 13, 6-[6-(2,6-Difluoro-3,5-dimethoxyphenyl)-1H-pyrazolo[3,4-d]pyrimidin-3-yl]-2-(methylsulfonyl)-1,2,3,4-tetrahydroisoquinoline]
< 100 | < 100 | < 100 | COc1cc(OC)c(F)c(-c2ncc3c(-c4cnn(C)c4)n[nH]c3n2)c1F [Example 87, 6-(2,6-Difluoro-3,5-dimethoxyphenyl)-3-(1-methyl-1H-pyrazol-4-yl)-1H-pyrazolo[3,4-d]pyrimidine]
< 100 | < 100 | < 100 | COc1cc(OC)c(Cl)c(-c2cc3[nH]nc(-c4cnn(CC(=O)N5CCC(OC)C5)c4)c3cn2)c1Cl (stereo not drawn) [Example 45, 6-(2,6-Dichloro-3,5-dimethoxyphenyl)-3-{1-[2-(3-methoxypyrrolidin-1-yl)-2-oxoethyl]-1H-pyrazol-4-yl}-1H-pyrazolo[4,3-c]pyridine]
< 100 | < 100 | < 100 | COc1cc(OC)c(Cl)c(-c2cc3[nH]nc(-c4cnn(CC(=O)N5CC[C@H](F)C5)c4)c3cn2)c1Cl [Example 48, 6-(2,6-Dichloro-3,5-dimethoxyphenyl)-3-(1-{2-[(3S)-3-fluoropyrrolidin-1-yl]-2-oxoethyl}-1H-pyrazol-4-yl)-1H-pyrazolo[4,3-c]pyridine]
< 100 | < 100 | < 100 | COc1cc(OC)c(Cl)c(-c2cc3[nH]nc(-c4cnn(CC(=O)NC5CCN(C)CC5)c4)c3cn2)c1Cl [Example 42, 2-{4-[6-(2,6-Dichloro-3,5-dimethoxyphenyl)-1H-pyrazolo[4,3-c]pyridin-3-yl]-1H-pyrazol-1-yl}-N-(1-methylpiperidin-4-yl)acetamide]
